Reference: PubChem BioAssay (NCI)
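Dose response: 5 concentrations. Exposure: 48 h. Format: 96-well plates. Endpoint: linear interpolation; highest concentration if not reached. GI50: concentration for 50% inhibition of growth. At the TGI there is no net growth.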

Columns and labels:
Assay in all cases: DTP human tumour cell line panel, 48 h
SF-295 CNS = tested on: SF-295 CNS
UACC-62 melanoma = tested on: UACC-62 melanoma
SNB-19 CNS = tested on: SNB-19 CNS
ACHN renal = tested on: ACHN renal
NCI-H460 lung = tested on: NCI-H460 lung
BT-549 breast = tested on: BT-549 breast
OVCAR-5 ovarian = tested on: OVCAR-5 ovarian
MDA-MB-435 = tested on: MDA-MB-435
PC-3 prostate = tested on: PC-3 prostate
HS 578T breast = tested on: HS 578T breast

| SMILES | GI50 (SF-295 CNS) [µM] | TGI (SF-295 CNS) [µM] | GI50 (UACC-62 melanoma) [µM] | TGI (UACC-62 melanoma) [µM] | GI50 (SNB-19 CNS) [µM] | TGI (SNB-19 CNS) [µM] | GI50 (ACHN renal) [µM] | TGI (ACHN renal) [µM] | GI50 (NCI-H460 lung) [µM] | TGI (NCI-H460 lung) [µM] | GI50 (BT-549 breast) [µM] | TGI (BT-549 breast) [µM] | GI50 (OVCAR-5 ovarian) [µM] | TGI (OVCAR-5 ovarian) [µM] | GI50 (MDA-MB-435) [µM] | TGI (MDA-MB-435) [µM] | GI50 (PC-3 prostate) [µM] | TGI (PC-3 prostate) [µM] | GI50 (HS 578T breast) [µM] | TGI (HS 578T breast) [µM] |
| --- | --- | --- | --- | --- | --- | --- | --- | --- | --- | --- | --- | --- | --- | --- | --- | --- | --- | --- | --- | --- |
| COC(=O)c1cc2c(cc1Cl)SC1=NN(C)C(N(C)C)N1S2(=O)=O (stereo not given) | > 100 | > 100 | > 100 | > 100 | > 100 | > 100 | > 100 | > 100 | > 100 | > 100 | > 100 | > 100 | > 100 | > 100 | > 100 | > 100 | > 100 | > 100 | > 100 | > 100 |
| CCC1(O)C(=O)OCc2c1cc1n(c2=O)Cc2cc3c(NC(=O)CN)cccc3nc2-1 (stereo not given) | 0.368 | 28 | 0.0927 | 0.852 | 0.492 | > 100 | 0.187 | 2.71 | 0.122 | 3.88 | 0.477 | > 26.2 | 3.27 | 63.9 | 5.4 | > 70 | 2.72 | > 100 | 28.9 | > 100 |
| CSc1nc2sc3c(c2c(=O)n1-c1ccc(C(C)C)cc1)CCC(=O)C3 | 2.2 | 4.76 | 1.81 | 3.49 | 2.15 | 4.56 | 2.25 | 4.48 | 2.27 | 5.1 | 2.94 | 8.36 | 2.71 | 6.58 | 1.85 | 3.71 | 1.6 | 3.21 | 2.96 | 9.64 |
| CC1OC(OC2C(O)CC(OC3C(O)CC(OC4CCC5(C)C(CCC6C5CC(O)C5(C)C(C7=CC(=O)OC7)CCC65O)C4)OC3C)OC2C)CC(O)C1O (stereo not given) | 0.0317 | 0.171 | 0.157 | 0.333 | 0.113 | 0.238 | 0.0358 | 0.126 | 0.0305 | 0.088 | 0.0309 | 0.101 | 0.137 | 0.295 | 0.134 | 0.318 | 0.0543 | 0.538 | 0.042 | 2.3 |
| Cc1cc[n+]2c(c1)-c1cc(C)cc[n+]1CC2 |  | > 100 |  | > 100 |  | > 100 |  | > 100 |  | > 100 |  | > 100 |  | > 100 |  | > 100 |  | > 100 |  | > 100 |
| CC1=C(CC(=O)c2cccc([N+](=O)[O-])c2)C(=O)c2ccccc2C1=O | 17.7 | 36.4 | 2.63 | 8.4 | > 100 | > 100 | 2.96 | 11.9 | 18.2 | > 100 | 13.2 | 26.5 | 6.98 | 20.5 | 2.13 | 4.04 | 7.14 | 63.2 | 4.74 | 48.6 |
| c1ccc2c(c1)Nc1ccncc1S2 | 14.7 | 68.8 | 16.5 | 56.9 | 25.7 | > 100 | 17.9 | > 100 | 18.2 | 49.7 | 29.6 | > 100 | 19 | > 100 | 23.2 | > 100 | 27 | > 100 | 11.4 | 48.4 |
| O=C(CCCCCCN1CC(=O)N2[C@@H](c3ccc(Cl)c(Cl)c3)c3[nH]c4ccccc4c3C[C@H]2C1=O)NO | 3.66 | 8 | 1.66 | 7.07 | 4.54 | 12.5 | 5.34 | 12.9 | 2.77 | 9.15 | 4.41 | 14.2 | 3.86 | 13.4 | 3.13 | 8.06 | 2.39 | 10.7 | 3.52 | 15.6 |
| COc1ccc(/C=C(\C#N)n2nnc3c(F)cccc32)cc1 | 0.275 | 2.72 | 0.303 | 15 | 0.412 | 18.2 | 0.689 | > 51.6 | 0.413 | > 100 | 0.433 | > 34.6 | 0.84 | 14 | 0.052 | 0.371 | 0.381 | > 100 | 0.309 | 1.98 |
